For one assay, the target named is T1, Peregrin (Homo sapiens) (UniProt P55201).
T1 sequence (whole entry): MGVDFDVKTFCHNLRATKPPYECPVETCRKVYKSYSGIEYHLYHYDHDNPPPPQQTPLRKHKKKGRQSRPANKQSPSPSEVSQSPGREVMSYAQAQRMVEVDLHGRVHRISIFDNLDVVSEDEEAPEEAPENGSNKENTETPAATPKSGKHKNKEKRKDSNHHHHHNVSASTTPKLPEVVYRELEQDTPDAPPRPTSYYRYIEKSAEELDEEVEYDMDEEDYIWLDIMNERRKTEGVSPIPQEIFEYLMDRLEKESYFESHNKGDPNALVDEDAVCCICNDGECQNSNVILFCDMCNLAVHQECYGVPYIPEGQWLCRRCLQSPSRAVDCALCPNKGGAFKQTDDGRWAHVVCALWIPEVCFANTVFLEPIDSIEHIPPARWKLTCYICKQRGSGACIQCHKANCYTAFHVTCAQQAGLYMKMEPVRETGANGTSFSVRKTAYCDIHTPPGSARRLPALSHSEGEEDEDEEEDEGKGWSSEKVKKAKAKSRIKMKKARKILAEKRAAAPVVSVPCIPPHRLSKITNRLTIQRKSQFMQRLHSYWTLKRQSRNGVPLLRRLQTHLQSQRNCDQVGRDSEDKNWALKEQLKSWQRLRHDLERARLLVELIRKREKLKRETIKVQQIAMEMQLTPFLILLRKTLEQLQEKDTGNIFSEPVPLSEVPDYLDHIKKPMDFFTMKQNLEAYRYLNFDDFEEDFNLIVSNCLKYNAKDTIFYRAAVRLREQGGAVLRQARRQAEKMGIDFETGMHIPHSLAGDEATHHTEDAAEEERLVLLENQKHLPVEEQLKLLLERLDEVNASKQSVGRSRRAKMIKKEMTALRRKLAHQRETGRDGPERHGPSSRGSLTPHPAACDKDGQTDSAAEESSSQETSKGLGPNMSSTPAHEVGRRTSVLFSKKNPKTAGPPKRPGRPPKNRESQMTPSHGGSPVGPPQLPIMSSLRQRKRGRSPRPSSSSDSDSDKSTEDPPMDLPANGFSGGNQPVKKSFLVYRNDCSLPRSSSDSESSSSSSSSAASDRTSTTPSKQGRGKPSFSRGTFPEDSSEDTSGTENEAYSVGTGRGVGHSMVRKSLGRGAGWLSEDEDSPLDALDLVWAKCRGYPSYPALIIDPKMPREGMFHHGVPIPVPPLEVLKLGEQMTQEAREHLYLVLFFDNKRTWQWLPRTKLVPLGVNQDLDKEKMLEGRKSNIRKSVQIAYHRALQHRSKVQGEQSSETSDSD
Conditions: Compound concentration 20.0 uM.

Assay [1] concerns the target Fibroblast growth factor receptor 2 (Homo sapiens) (UniProt P21802). The conditions noted are these: Compound concentration 20.0 uM.
Description: Thermal Shift Assay. Domain: start/stop: T457-E768

This passage reports ΔTm results from ChEMBL document CHEMBL5724796, “Tm Shift (DSF) assay results for EUbOPEN Chemogenomics Library” (2024).

Where “and” joins values, the source holds several entries; their conditions need not be identical. Equal values may be shown once. Residues, ends and D or L forms follow the SMILES beside them.

Chain of Fibroblast growth factor receptor 2 (Homo sapiens) (P21802 22-821 limits assumed): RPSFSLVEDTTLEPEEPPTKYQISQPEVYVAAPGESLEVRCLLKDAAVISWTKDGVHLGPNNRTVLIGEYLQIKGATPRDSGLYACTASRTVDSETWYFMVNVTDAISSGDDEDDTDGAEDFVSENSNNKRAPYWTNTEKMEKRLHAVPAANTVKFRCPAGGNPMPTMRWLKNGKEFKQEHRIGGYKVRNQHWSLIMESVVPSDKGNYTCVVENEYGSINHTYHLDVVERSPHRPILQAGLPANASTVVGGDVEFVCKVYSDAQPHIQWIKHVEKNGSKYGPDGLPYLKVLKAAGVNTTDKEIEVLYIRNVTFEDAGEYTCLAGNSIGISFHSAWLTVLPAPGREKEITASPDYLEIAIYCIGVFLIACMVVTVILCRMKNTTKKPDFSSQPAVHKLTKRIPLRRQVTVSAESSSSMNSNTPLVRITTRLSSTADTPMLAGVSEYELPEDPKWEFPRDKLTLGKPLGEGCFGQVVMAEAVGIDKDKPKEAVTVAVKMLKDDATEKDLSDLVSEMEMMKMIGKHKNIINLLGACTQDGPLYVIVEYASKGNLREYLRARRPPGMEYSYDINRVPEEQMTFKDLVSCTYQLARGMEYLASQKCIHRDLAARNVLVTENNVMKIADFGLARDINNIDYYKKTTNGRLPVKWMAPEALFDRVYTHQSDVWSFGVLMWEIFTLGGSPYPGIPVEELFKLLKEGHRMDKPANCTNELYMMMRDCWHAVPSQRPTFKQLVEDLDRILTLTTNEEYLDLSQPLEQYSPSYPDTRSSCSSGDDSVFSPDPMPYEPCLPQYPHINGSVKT

As to `C[C@]12CC[C@@H]3c4ccc(O)cc4C[C@@H](CCCCCCCCC[S+]([O-])CCCC(F)(F)C(F)(F)F)[C@H]3[C@@H]1CC[C@@H]2O` (some centres not stated), the shift in melting temperature (ΔTm) at Peregrin (Homo sapiens) was 0 °C; in assay [1], -3.24 °C.
The corresponding values for `CC(=O)N[C@@H](CC(=O)O)C(=O)N[C@@H](CCC(=O)O)C(=O)N[C@H](C(=O)N[C@H](C=O)CC(=O)O)C(C)C` are -1.4 °C and -0.22 °C.
`CC(=O)N[C@@H](CC(C)C)C(=O)N[C@@H](CCC(=O)O)C(=O)N[C@H](C(=O)N[C@H](C=O)CC(=O)O)C(C)C` (Ac-LEVD-aldehyde): the ΔTm at Peregrin (Homo sapiens) is -1.25 °C; in assay [1], 0.88 °C.
Regarding `O=C(c1cc(Cl)c(O)c(Cl)c1)N1CS(=O)(=O)c2ccccc21`, the figures for the ΔTm (at Peregrin (Homo sapiens); in assay [1]) were 1.35 °C and 0.39 °C, respectively.
On to `Cc1c(Nc2ccc(S(=O)(=O)N3CCN(C)CC3)cc2F)nc2ccc(-c3cnn(C4CC4)c3)cn2c1=O`, for which the ΔTm is 0.83 °C on Peregrin (Homo sapiens) and -0.17 °C in assay [1].
On to `Cc1cnc(-c2ccccc2C(C)C)nc1NCc1ccc(-n2ccnn2)cc1`, for which the ΔTm on Peregrin (Homo sapiens) is -1.14 °C; in assay [1] it was -0.47 °C.
The corresponding values for `CS(=O)(=O)c1ccc(Oc2cc(F)cc(C#N)c2)c2c1[C@H](O)[C@H](F)[C@@H]2F` are 2.16 °C and 0.61 °C.
The corresponding values for `CCC(CC)N(CCN(C)C(=O)CCC(=O)O)Cc1cccc(C(=O)Nc2sc3c(c2C(=O)c2cnn(-c4ccc(Cl)c(C(F)(F)F)c4)c2)CCC(C)(C)C3)c1` are -1.97 °C and -2.12 °C.
The corresponding values for `CC(C)Oc1ccc2c(=O)[nH]c3sccc3c2c1` are -0.93 °C and 0.02 °C.
For the compound `COc1ccc(/C=C/C(=O)NO)c(-c2ccc(-c3ccccc3)cc2)c1`, the thermal shift (ΔTm) at Peregrin (Homo sapiens) is -5.43 °C; in assay [1] it was -5.03 °C.
The corresponding values for `O=c1[nH]c(Oc2cnn(Cc3ccccc3)c2)nc2cnccc12` are 3.09 °C and -0.24 °C.
For the compound `N#Cc1nc2c(nc1C#N)-c1ccccc1C2=NOCc1ccccc1`, the figures for the ΔTm (at Peregrin (Homo sapiens); in assay [1]) were 5.25 °C and 0.78 °C, respectively.
`COc1ccc(-c2c(-c3ccc(C#N)c(F)c3)nc(N3CCC(N)CC3)n(C)c2=O)cc1F`: the ΔTm came to 1.09 °C on Peregrin (Homo sapiens) and 0.16 °C in assay [1].
The corresponding values for `C[C@@H]1CCC[C@H](C)N1NC(=O)c1ccc(Cl)c(S(N)(=O)=O)c1` are 0.5 °C and -0.13 °C.
The corresponding values for `CN(C(=O)CCCOc1ccc2[nH]c(=O)ccc2c1)C1CCCCC1` are 1.74 °C and -0.58 °C.
Take `CC(=O)Nc1ccc(-c2cc(-c3ccccc3)nc3cc(C(=O)NCCCn4ccnc4)nn23)cc1`: the ΔTm was -0.4 °C on Peregrin (Homo sapiens) and 0.21 °C in assay [1].
The corresponding values for `Cc1ccc(N2C(=O)/C(=C/C=C/c3ccco3)C(=O)NC2=S)cc1Cl` are -2.31 °C and -1.72 °C.
The corresponding values for `COc1cc2c(cc1-c1c(C)noc1C)[nH]c1nc(C)nc(-c3ccnc4ccccc34)c12` are 1.04 °C and -1.02 °C.
`O=C1C(P(=O)(O)O)CC(O)N1O` (configuration not stated): the values for the ΔTm (at Peregrin (Homo sapiens); in assay [1]) were 1.52 °C and -0.05 °C, respectively.
For the compound `N=C(N)NC(=O)c1cnn(-c2cccc3ncccc23)c1C1CC1`, the ΔTm was -0.17 °C at Peregrin (Homo sapiens) and -0.51 °C in assay [1].
The corresponding values for `O=C1c2ccccc2C(=O)c2oc(-c3cccnc3)nc21` are 2.45 °C and -0.95 °C.
The corresponding values for `O=c1[nH]ccc2cc(F)c(NS(=O)(=O)c3ccc(N4CC[C@@H](O)C4)s3)cc12` are -1.14 °C and 0.54 °C.
The corresponding values for `O=C(c1ccc2[nH]ccc2c1)N1CCN(S(=O)(=O)c2ccc3[nH]c(=O)oc3c2)CC1` are -0.16 °C and 1.77 °C.
Regarding `CC(C)c1cc(C(=O)N2CC[C@@H](NC(=O)C3CC3)C2)[nH]n1`, the shift in melting temperature (ΔTm) on Peregrin (Homo sapiens) was -0.47 °C; in assay [1], -0.51 °C.
For `Cc1cc(C)c(CNC(=O)c2cc(-c3ccc(N4CCN(C)CC4)nc3)cc3c2c(C)cn3C(C)C)c(=O)[nH]1`, the values for the ΔTm (at Peregrin (Homo sapiens); in assay [1]) were -1.27 °C and 0.85 °C, respectively.
The corresponding values for `Nc1ccc(-c2cccs2)cc1NC(=O)c1ccc(NC=O)cc1` are 2.98 °C and 0.02 °C.
Consider `OC[C@H]1O[C@@H](c2ccc(Cl)c(Cc3ccc(OCCOC4CC4)cc3)c2)[C@H](O)[C@@H](O)[C@@H]1O`, for which the ΔTm is 0.43 °C on Peregrin (Homo sapiens) and -0.3 °C in assay [1].
The corresponding values for `CC(C)CCn1c(CN2CCN(C(=O)C3CC3)CC2)nc2c1c(=O)n(C)c(=O)n2C` are 1.75 °C and -0.8 °C.
The corresponding values for `CC1(C)CC[C@]2(C(=O)O)CC[C@]3(C)C(=CC[C@@H]4[C@@]5(C)C=C(O)C(=O)C(C)(C)[C@@H]5CC[C@]43C)[C@@H]2C1` are 2.32 °C and 0 °C.
The corresponding values for `CNCCCN1c2ccccc2CCc2ccccc21` are 1.05 °C and -0.25 °C.
Take `CC(c1cccc2ccccc12)n1cnc2c(=O)[nH]c(Cc3ccccc3)nc21` (configuration not stated): the thermal shift (ΔTm) is -0.65 °C on Peregrin (Homo sapiens) and -1.64 °C in assay [1].
The corresponding values for `NC(=O)[C@H]1CCCCc2c1[nH]c1ccc(Cl)cc21` are 0.13 °C and 1.09 °C.
The corresponding values for `O=C(O)[C@@H]1CCCN(C(=O)n2cnc(-c3ccc(-c4cnc(N5CCOCC5)nc4)cc3)n2)[C@H]1c1ccccc1` are -0.92 °C and 0.15 °C.
The corresponding values for `CC(=O)N1CCc2c(c(N3CCCc4cc(-c5cnn(C)c5)c(C(F)F)cc43)nn2C2CCOCC2)C1` are -1.44 °C and 0.45 °C.
As for `C[C@H](NC(=O)c1cn(C2(C#N)CC2)cn1)C(=O)Nc1nc(-c2cccc(-c3ccn(C)n3)c2)cs1`, the ΔTm on Peregrin (Homo sapiens) is -0.85 °C; in assay [1] it was 0.8 °C.
The corresponding values for `Oc1ccc(-c2c(-c3ccccc3)nn3c(C(F)(F)F)cc(C(F)(F)F)nc23)cc1` are -1.38 °C and 1.15 °C.
Regarding `FC(F)(F)Oc1ccc(Oc2ccnc(N3CCC(NC(=S)Nc4cccnc4)CC3)c2Cl)c(Cl)c1`, the shift in melting temperature (ΔTm) was 0.92 °C and 3.5 °C on Peregrin (Homo sapiens); -3.46 °C and 0.73 °C in assay [1].
On to `Cc1c(NC(=O)c2cc(C(N)=O)nc3cc(F)ccc23)c(C(F)(F)F)nn1Cc1ccc(C#N)cc1`, for which the figures for the ΔTm (on Peregrin (Homo sapiens); in assay [1]) were 0.94 °C and 0.32 °C, respectively.
The corresponding values for `CCn1c(=S)[nH]c2cc3c(NCc4ccccc4N4CCC(CO)CC4)ncnc3cc21` are 1.64 °C and -0.06 °C.
The corresponding values for `CNC[C@@H](O)COc1ccc(Cl)c(-c2nc(-c3c(C)noc3C)c(C)c(N3CC4(CCN(C(=O)OC)CC4)C3)n2)c1` are -1.65 °C and 0.49 °C.
The corresponding values for `Cn1ncc(-c2nn(C)c3ncnc(N4CCC4)c23)c1-c1ccc(C(F)(F)F)cc1` are 3.7 °C and 0.04 °C.
Turning to `CCCCCCCCCCCCC/C=C/[C@@H](O)[C@H](CO)NC(=O)CCl`, the thermal shift (ΔTm) on Peregrin (Homo sapiens) was found to be 0.52 °C; in assay [1], 0.03 °C.
The corresponding values for `COc1cc(O)c2c(c1)/C=C\C[C@H](O)[C@H](O)C(=O)/C=C\C[C@H](C)OC2=O` are -1.29 °C and 2.24 °C.
Take `CCC(NC(=O)C(CC(C)C)NC(=O)OCc1ccccc1)C(=O)C(=O)NCCCN1CCOCC1` (configuration not stated): the ΔTm on Peregrin (Homo sapiens) is -1.22 °C; in assay [1], 1.24 °C.
`COc1ccc(Cc2nc(O)c3c(C)nc([C@@H](CCCc4ccccc4)[C@@H](C)O)n3n2)cc1OC`: the values for the ΔTm (on Peregrin (Homo sapiens); in assay [1]) were 0.21 °C and 0.51 °C, respectively.
The corresponding values for `C/C=C1\NC(=O)[C@H]2CSSCC/C=C/[C@H](CC(=O)N[C@H](C(C)C)C(=O)N2)OC(=O)[C@H](C(C)C)NC1=O` are 0 °C and 0.1 °C.
The corresponding values for `C=Cc1cc(C(=O)Nc2ccc(C(=N)N)cc2)c(-c2ccc(C(=O)NCC3CC3)nc2C(=O)O)cc1OC` are 2.91 °C and 0.02 °C.
The corresponding values for `C(=C\c1ccccc1)/CN1CCN(CCOC(c2ccccc2)c2ccccc2)CC1` are 0.95 °C and -0.04 °C.
In the case of `OC[C@H]1O[C@@H](c2ccc(F)c(Cc3cc4ccccc4s3)c2)[C@H](O)[C@@H](O)[C@@H]1O`, the results for the ΔTm (at Peregrin (Homo sapiens); in assay [1]) were 1.12 °C and -0.55 °C, respectively.
For the compound `CC(=O)N1CCN([C@H]2CCC[C@@H](NC(=O)c3cc4c(F)ccc(C)c4[nH]3)C2)CC1`, the ΔTm on Peregrin (Homo sapiens) was -1.02 °C; in assay [1], -2.8 °C.
The corresponding values for `CC(C)Oc1ccc(C=O)cc1` are -0.07 °C and 0.13 °C.

As a reminder, the ΔTm is the shift of the melting midpoint relative to a reference.
